Assay results from patent US11434534B2, “Optimizing therapeutic options in personalized medicine” (CureMatch, Inc., priority 2016, dated 2022).

Key:
[1] = tested on: metastatic basal cell cancer; details: for response to earlier therapy: brain, bone and liver metastases, therapies before nivolumab
Description: The interaction of this ligand (PD-L1) with the programmed death receptor (PD-1), expressed on T and B cells, alters the function of these cells leading to inhibition of autoimmunity and anti-tumor immunity.
The patient was started on nivolumab (OPDIVO®, anti-PD-1 antibody).

[2] = Tolerability in type 2 diabetes patient (Example 6); type: in vivo, human
Description: A person over-weight man (Body Mass Index=37.5, clinical obesity class 2) with a 5-year history of type 2 diabetes consults a Diabetes Specialty Clinic in Paris (France) for recent weight gain, foot pain, and persistent nocturia. At the time of their initial appointment, the patient was taking simvastatin (ZOCOR®) for a hyperlipidemia and a “pancreatic elixir” in an attempt to improve their diabetes control. […] The laboratory tests performed the same day confirms the uncontrolled type 2 diabetes (evaluated by a level of glycosylated hemoglobin=8.3%-normal<7%), a normo-lipidemia, and an elevated urine micro-albumin level. The physician ordered a urine metabolite profiling. The post-analysis review of the results highlighted the upregulation of the IL-1 (interleukin 1), TNF (Tumor Necrosis Factor), and mTOR (Mammalian Target of Rapamycin) signaling pathways.
The association of IL-1 and TNF inhibitors together is not considered by the system, as it increases the risk of serious infections. […] All of these drugs are approved by the ANSM (French Agency for Medicines and Medical Products Security).

[3] = tested on: hepatocellular carcinoma (HCC) with CDKN2A and CTNNB1 mutations; assay: Clinical outcome of hepatocellular carcinoma patient (Example 1); type: in vivo, human; details: metastatic HCC after chemoembolization, before molecular profiling
Description: Six months later, the physician logs in to the system via the web-interface and completes the physician's feedback survey regarding the regimen prescribed to their patient and the outcome observed. […] The entry corresponding to this observation was created in the clinical outcome database and will then be used in order to optimize similar cases.

For `CC(=O)O[C@H]1C(=O)[C@@]2(C)[C@H]([C@H](OC(=O)c3ccccc3)[C@]3(O)C[C@H](OC(=O)[C@H](O)[C@@H](NC(=O)c4ccccc4)c4ccccc4)C(C)=C1C3(C)C)[C@]1(OC(C)=O)CO[C@@H]1C[C@@H]2O` [paclitaxel], the “response to earlier therapy” value [1] was “short-lived response”.
With `CCC(C)(C)C(=O)O[C@H]1C[C@@H](C)C=C2C=C[C@H](C)[C@H](CC[C@@H]3C[C@@H](O)CC(=O)O3)[C@H]21` [simvastatin] the tolerability ([2]; taken for hyperlipidemia) was “well-tolerated”.
For `CNC(=O)c1cc(Oc2ccc(NC(=O)Nc3ccc(Cl)c(C(F)(F)F)c3)cc2)ccn1` [sorafenib], the “disease course under treatment” value [3] was “continued to progress”.
For `Cc1c(C(=O)Nc2ccc(N3C[C@@H](C)O[C@@H](C)C3)nc2)cccc1-c1ccc(OC(F)(F)F)cc1` [sonidegib], the “response to earlier therapy” value [1] was “non-responsive”.
For `CS(=O)(=O)c1ccc(C(=O)Nc2ccc(Cl)c(-c3ccccn3)c2)c(Cl)c1` [vismodegib], the “response to earlier therapy” value [1] was “non-responsive”.
For `COc1ccc(Cl)cc1C(=O)NCCc1ccc(S(=O)(=O)NC(=O)NC2CCCCC2)cc1` [glibenclamide], the “adverse effects that led to stopping the drug” value ([2]; human, in vivo) was “dizziness, sweating, and agitation”.
For nivolumab: anti-PD-1 antibody, the response on scans ([1]; after two months, PD-L1 (CD274) amplification) was “remarkable partial remission” and the toxicity ([1]; human, in vivo) was “no toxicity”.
For `N.N.[Cl][Pt][Cl]` [cisplatin], the “response to earlier therapy” value [1] was “short-lived response”.
